From paper PMC7479006, “Effect of high-fat diet on the pharmacokinetics and safety of flumatinib in healthy Chinese subjects” (Cancer Chemotherapy and Pharmacology, 2020)
Read-outs that look alike come from different tables or passages of the source. Blank lines part the entries; values can stand above or below the compound they belong to.

What was measured:
[1] = human, in vivo
Procedure: (§1) The subjects were randomized 24 h in advance in one of the two following groups. Group A: at least 10 h after fasting, oral flumatinib administration of 400 mg (2 tablets, day 1, first dose); the washout period was 14 days, half an hour after high-fat diet (timed from the start of diet) oral flumatinib administration of 400 mg (2 tablets, day 15,second dose). Subjects in group B followed the opposite administration sequence from those in group A. In groups A and B, the high-fat diet contained 800 ~ 1000Kcal (about 50% from fat) (meal composition is detailed Table 1).
(§2) Blood samples for pharmacokinetic (PK) evaluation were collected at 0 h before the initiation of dosing (pre-dose), and at 0.5, 1, 1.5, 2, 2.5, 3, 4, 5, 6, 8, 10, 12, 24, 48, 72, and 96 h after dosing. Blood samples were centrifuged at 2000g for 10 min at 4 ℃. Centrifugation was completed within 60 min after sample collection. The plasma was stored at − 70 °C for further analysis. Plasma concentrations of flumatinib and its main metabolites (M1 and M3) were determined using liquid chromatography-mass spectrometry (LC–MS/MS) [20].
(§3) Phoenix WinNonlin Version 7.0 (Pharsight Corporation, Sunnyvale, CA, USA) software was used to calculate the pharmacokinetic parameters (Tmax, Cmax, AUC0–t, AUC0–∞, t1/2, V/F, CL/F) of flumatinib and its main metabolites using a non-compartmental method (NCA module). Linear Up Log Down trapezoidal method was used for AUC calculation. The BE module of WinNonLin was used to analyze AUC0–t, AUC0–∞, and Cmax of flumatinib in fed and fasting states after logarithmic conversion. The treatment group (fasting, high-fat diet), the treatment sequence (A, B), and treatment phase were fixed effects in the model, and the subjects nested in the sequence were random effects. The adjusted mean difference (fasting/high-fat diet) and its 90% confidence interval estimated by the model, were taken as the negative number to obtain the corresponding PK parameter geometric mean ratio (postprandial/fasting), to estimate its 90% confidence interval, and to evaluate the effect of a high-fat diet on the pharmacokinetics of flumatinib.

[2] = in vivo; cited from earlier work
[3] = preclinical studies; tissue drug concentration higher than plasma concentration; cited from earlier work
[4] = Pharmacokinetics of flumatinib, M1 and M3 in plasma after a single oral 400 mg dose of flumatinib mesylate tablets, fasting vs high-fat diet (LC-MS/MS, non-compartmental); conditions: for AUC0-∞ LSGM ratio high-fat diet/fasting (%) (90% CI) / AUC0–t LSGM ratio high-fat diet/fasting (%) (90% CI) / Cmax LSGM ratio high-fat diet/fasting (%) (90% CI): N = 11, single oral 400 mg; for AUC(0-inf) / AUC(0-t) / Cmax / MRT / Tmax / half-life: human, po, 400 mg; for Tmax: Tmax median(range)
Procedure: as §1, §2, §3

[5] = rats, oral administration, preclinical studies; cited from earlier work
[6] = set-up: method as in PMID 20703259; conditions: doses in the range of 200–1000 mg; cited from earlier work
[7] = Biopharmaceutics Classification System (BCS) class; type: physicochemical; conditions: based on the BCS Guidance of the year 2000
[8] = beagles, oral administration, preclinical studies; cited from earlier work
[9] = Safety evaluation (adverse events, NCI CTCAE v4.03) after a single oral 400 mg dose of flumatinib mesylate; type: in vivo, human (healthy Chinese subjects); set-up: TEAE, Incidence rate / TEAE related to the study drug, Incidence rate / SAE related to the study drug, Incidence rate / TEAE related to death, Incidence rate / TEAE related to withdrawal, Incidence rate: unit not given here
Procedure: All subjects who participated in the study were included in the safety analysis. Safety was evaluated by vital signs, physical examination, ECG, laboratory examination, adverse events (AEs), and combined medication. All adverse events that occurred during the trial were classified into mild, moderate and severe levels based on NCI CTCAE v4.03.

[10] = set-up: method as in PMID 26096139; conditions: healthy subjects; cited from earlier work
[11] = set-up: method as in PMID 18024884; conditions: cited from earlier work
[12] = set-up: method as in PMID 25511575; conditions: healthy subjects; cited from earlier work
[13] = Fasting (N = 11), mean ± SD, single oral 400 mg, listed as Flumatinib
[14] = High-fat diet (N = 12), mean ± SD, single oral 400 mg
[15] = High-fat diet (N = 12), mean ± SD, single oral 400 mg, listed as Flumatinib
[16] = Fasting, the first period (N = 6)
[17] = Fasting, the second period (N = 5)
[18] = High-fat diet, the first period (N = 6)
[19] = High-fat diet, the second period (N = 6)

AUC0–t [1]: 231 ± 101 ng·h/mL | Cmax [1]: 54.7 ± 25.5 ng/mL | Increase of AUC0–t after high-fat diet over fasted state ([1]; po, 400 mg): 1.6 fold | Increase of AUC0–∞ after high-fat diet over fasted state ([1]; po, 400 mg): 1.6 fold | Increase of Cmax after high-fat diet over fasted state ([1]; po, 400 mg): 1.9 fold
Structure (SMILES): Cc1ncc(NC(=O)c2ccc(CN3CCNCC3)c(C(F)(F)F)c2)cc1Nc1nccc(-c2cccnc2)n1 [M1, N-desmethyl flumatinib]
Metabolite in plasma relative to the parent drug in plasma [2]: approximately 10%

Structure (SMILES): Cc1ncc(NC(=O)c2ccc(CN3CCN(C)CC3)c(C(F)(F)F)c2)cc1Nc1nccc(-c2cccnc2)n1 [flumatinib]
Tissue distribution [3]: widely distributed in tissues | CL/F ([4]; Fasting (N = 11), mean ± SD, single oral 400 mg): 399 ± 229 L/h | CL/F [4, 13]: 661 ± 380 L/h | V/F [4, 13]: 11,700 ± 5130 L | CL/F [4, 14]: 661 ± 380 L/h | V/F [4, 14]: 11700 ± 5130 L | CL/F [4, 15]: 399 ± 229 L/h | V/F [4, 15]: 8470 ± 4130 L | AUC0-∞ LSGM ratio high-fat diet/fasting (%) (90% CI) [4]: 166.87% | AUC0–t LSGM ratio high-fat diet/fasting (%) (90% CI) [4]: 167.43% | Cmax LSGM ratio high-fat diet/fasting (%) (90% CI) [4]: 281.65% | AUC0-∞ LSGM ratio high-fat diet/fasting (%) (90% CI) ([4]; listed as Flumatinib): 167 (143, 194) % | AUC0–t LSGM ratio high-fat diet/fasting (%) (90% CI) ([4]; listed as Flumatinib): 167 (144, 195) % | Cmax LSGM ratio high-fat diet/fasting (%) (90% CI) ([4]; listed as Flumatinib): 282 (226, 351) % | AUC(0-inf) ([4]; plasma, AUC0-∞ (least-square geometric mean), Fasting (N = 11), food-effect analysis, single oral 400 mg): 710 ng·h/mL | AUC(0-inf) ([4]; plasma, AUC0-∞ (least-square geometric mean), High-fat diet (N = 11), food-effect analysis, single oral 400 mg): 1180 ng·h/mL | AUC(0-inf) ([4]; plasma, AUC0-∞, Fasting (N = 11), mean ± SD, single oral 400 mg): 847 ± 572 ng·h/mL | AUC(0-inf) ([4]; plasma, AUC0-∞, High-fat diet (N = 12), mean ± SD, single oral 400 mg): 1280 ± 586 ng·h/mL | AUC(0-t) ([4]; plasma, AUC0–t (least-square geometric mean), Fasting (N = 11), food-effect analysis, single oral 400 mg): 696 ng·h/mL | AUC(0-t) ([4]; plasma, AUC0–t (least-square geometric mean), High-fat diet (N = 11), food-effect analysis, single oral 400 mg): 1170 ng·h/mL | AUC(0-t) ([4]; plasma, AUC0–t, Fasting (N = 11), mean ± SD, single oral 400 mg): 832 ± 566 ng·h/mL | AUC(0-t) ([4]; plasma, AUC0–t, High-fat diet (N = 12), mean ± SD, single oral 400 mg): 1260 ± 582 ng·h/mL | Cmax ([4]; plasma, Cmax (least-square geometric mean), Fasting (N = 11), food-effect analysis, single oral 400 mg): 43.7 ng/mL | Cmax ([4]; plasma, Cmax (least-square geometric mean), High-fat diet (N = 11), food-effect analysis, single oral 400 mg): 123 ng/mL | Cmax ([4]; plasma, Cmax, Fasting (N = 11), mean ± SD, single oral 400 mg): 50.7 ± 32.5 ng/mL | Cmax ([4]; plasma, Cmax, High-fat diet (N = 12), mean ± SD, single oral 400 mg): 132 ± 54.5 ng/mL | MRT ([4]; plasma, Fasting (N = 11), mean ± SD, single oral 400 mg): 17.2 ± 3.66 h | MRT ([4]; plasma, High-fat diet (N = 12), mean ± SD, single oral 400 mg): 19.2 ± 3.37 h | Tmax ([4]; plasma, Fasting (N = 11), single oral 400 mg): 2.5 h | Tmax ([4]; plasma, High-fat diet (N = 12), single oral 400 mg): 3 h | half-life ([4]; plasma, t1/2, Fasting (N = 11), mean ± SD, single oral 400 mg): 13.3 ± 2.52 h | half-life ([4]; plasma, t1/2, High-fat diet (N = 12), mean ± SD, single oral 400 mg): 15.5 ± 4.67 h | Increase in the exposure when taken with food ([4]; single oral 400 mg): 67% | Increase of AUC0–∞ after high-fat diet over fasted state ([4]; single oral 400 mg, plasma): 1.6 fold | Increase of Cmax after high-fat diet over fasted state ([4]; single oral 400 mg, plasma): nearly tripled | Time to maximum blood concentration [5]: about 5 h | Dose relation of Cmax and AUC0–t [6]: linearly related to doses | BCS class [7]: BCS Class III | Time to maximum blood concentration [8]: about 5 h | SAE related to the study drug, Incidence rate [9, 16]: 0.0 | SAE related to the study drug, Number [9, 16]: 0 | SAE related to the study drug, Time [9, 16]: 0 | TEAE related to death, Incidence rate [9, 16]: 0.0 | TEAE related to death, Number [9, 16]: 0 | TEAE related to death, Time [9, 16]: 0 | TEAE related to the study drug, Incidence rate [9, 16]: 83.3 | TEAE related to the study drug, Number [9, 16]: 5 | TEAE related to the study drug, Time [9, 16]: 11 | TEAE related to withdrawal, Incidence rate [9, 16]: 0.0 | TEAE related to withdrawal, Number [9, 16]: 0 | TEAE related to withdrawal, Time [9, 16]: 0 | TEAE, Incidence rate [9, 16]: 100.0 | TEAE, Number [9, 16]: 6 | TEAE, Time [9, 16]: 14 | SAE related to the study drug, Incidence rate [9, 17]: 0.0 | SAE related to the study drug, Number [9, 17]: 0 | SAE related to the study drug, Time [9, 17]: 0 | TEAE related to death, Incidence rate [9, 17]: 0.0 | TEAE related to death, Number [9, 17]: 0 | TEAE related to death, Time [9, 17]: 0 | TEAE related to the study drug, Incidence rate [9, 17]: 60.0 | TEAE related to the study drug, Number [9, 17]: 3 | TEAE related to the study drug, Time [9, 17]: 4 | TEAE related to withdrawal, Incidence rate [9, 17]: 0.0 | TEAE related to withdrawal, Number [9, 17]: 0 | TEAE related to withdrawal, Time [9, 17]: 0 | TEAE, Incidence rate [9, 17]: 60.0 | TEAE, Number [9, 17]: 3 | TEAE, Time [9, 17]: 5 | SAE related to the study drug, Incidence rate ([9]; Fasting, total (N = 11)): 0.0 | SAE related to the study drug, Number ([9]; Fasting, total (N = 11)): 0 | SAE related to the study drug, Time ([9]; Fasting, total (N = 11)): 0 | TEAE related to death, Incidence rate ([9]; Fasting, total (N = 11)): 0.0 | TEAE related to death, Number ([9]; Fasting, total (N = 11)): 0 | TEAE related to death, Time ([9]; Fasting, total (N = 11)): 0 | TEAE related to the study drug, Incidence rate ([9]; Fasting, total (N = 11)): 72.7 | TEAE related to the study drug, Time ([9]; Fasting, total (N = 11)): 15 | TEAE related to withdrawal, Incidence rate ([9]; Fasting, total (N = 11)): 0.0 | TEAE related to withdrawal, Number ([9]; Fasting, total (N = 11)): 0 | TEAE related to withdrawal, Time ([9]; Fasting, total (N = 11)): 0 | TEAE, Incidence rate ([9]; Fasting, total (N = 11)): 81.8 | TEAE, Time ([9]; Fasting, total (N = 11)): 19 | SAE related to the study drug, Incidence rate [9, 18]: 0.0 | SAE related to the study drug, Number [9, 18]: 0 | SAE related to the study drug, Time [9, 18]: 0 | TEAE related to death, Incidence rate [9, 18]: 0.0 | TEAE related to death, Number [9, 18]: 0 | TEAE related to death, Time [9, 18]: 0 | TEAE related to the study drug, Incidence rate [9, 18]: 50.0 | TEAE related to the study drug, Number [9, 18]: 3 | TEAE related to the study drug, Time [9, 18]: 6 | TEAE related to withdrawal, Incidence rate [9, 18]: 16.7 | TEAE related to withdrawal, Number [9, 18]: 1 | TEAE related to withdrawal, Time [9, 18]: 1 | TEAE, Incidence rate [9, 18]: 100.0 | TEAE, Number [9, 18]: 6 | TEAE, Time [9, 18]: 18 | SAE related to the study drug, Incidence rate [9, 19]: 0.0 | SAE related to the study drug, Number [9, 19]: 0 | SAE related to the study drug, Time [9, 19]: 0 | TEAE related to death, Incidence rate [9, 19]: 0.0 | TEAE related to death, Number [9, 19]: 0 | TEAE related to death, Time [9, 19]: 0 | TEAE related to the study drug, Incidence rate [9, 19]: 66.7 | TEAE related to the study drug, Number [9, 19]: 4 | TEAE related to the study drug, Time [9, 19]: 6 | TEAE related to withdrawal, Incidence rate [9, 19]: 0.0 | TEAE related to withdrawal, Number [9, 19]: 0 | TEAE related to withdrawal, Time [9, 19]: 0 | TEAE, Incidence rate [9, 19]: 66.7 | TEAE, Number [9, 19]: 4 | TEAE, Time [9, 19]: 7 | SAE related to the study drug, Incidence rate ([9]; High-fat diet, total (N = 12)): 0.0 | SAE related to the study drug, Number ([9]; High-fat diet, total (N = 12)): 0 | SAE related to the study drug, Time ([9]; High-fat diet, total (N = 12)): 0 | TEAE related to death, Incidence rate ([9]; High-fat diet, total (N = 12)): 0.0 | TEAE related to death, Number ([9]; High-fat diet, total (N = 12)): 0 | TEAE related to death, Time ([9]; High-fat diet, total (N = 12)): 0 | TEAE related to the study drug, Incidence rate ([9]; High-fat diet, total (N = 12)): 58.3 | TEAE related to the study drug, Time ([9]; High-fat diet, total (N = 12)): 12 | TEAE related to withdrawal, Incidence rate ([9]; High-fat diet, total (N = 12)): 8.3 | TEAE related to withdrawal, Number ([9]; High-fat diet, total (N = 12)): 1 | TEAE related to withdrawal, Time ([9]; High-fat diet, total (N = 12)): 1 | TEAE, Incidence rate ([9]; High-fat diet, total (N = 12)): 83.3 | TEAE, Time ([9]; High-fat diet, total (N = 12)): 25 | TEAE incidence ([9]; fasting group): 81.8% | TEAE related to the study drug, incidence ([9]; fasting group): 72.7% | TEAE incidence ([9]; high-fat diet group): 83.3% | TEAE related to the study drug, incidence ([9]; high-fat diet group): 58.3% | Safety and tolerability ([9]; single oral dose of 400 mg, fasting or high-fat diet): safe and well tolerated

Structure (SMILES): N#Cc1ccnc(N2C(=O)CC[C@H]2C(=O)N(c2cncc(F)c2)[C@H](C(=O)NC2CC(F)(F)C2)c2ccccc2Cl)c1 [ivosidenib]
Increase in Cmax after a high-fat diet compared to fasting [10]: 98%

Structure (SMILES): CS(=O)(=O)CCNCc1ccc(-c2ccc3ncnc(Nc4ccc(OCc5cccc(F)c5)c(Cl)c4)c3c2)o1 [lapatinib]
Increase in bioavailability after high-fat diet [11]: 325% | Increase in bioavailability after low-fat diet [11]: 167%

Structure (SMILES): Cc1cn(-c2cc(NC(=O)c3ccc(C)c(Nc4nccc(-c5cccnc5)n4)c3)cc(C(F)(F)F)c2)cn1 [nilotinib]
AUC higher when taken with food than fasting [12]: 82% | Cmax higher when taken with food than fasting [12]: 112%
